Source: DBAASP
In brackets after ≈: the same amount, converted by molar mass. Values belong to the compound of their own block, whether it stands above or below them.

What was measured:
Experiment in all cases: ≥ marks a high value that may be exact or a test limit, other limits are often not marked, values filed in µg/mL are converted to µM
Bacillus subtilis 168 HT = system: Bacillus subtilis 168 HT
[1] = system: Escherichia coli K12 MG1655
[2] = system: Candida albicans ATCC 10231
[3] = system: Escherichia coli ATCC 25922
[4] = system: Bacillus subtilis ATCC 23857
Bacillus megaterium = system: Bacillus megaterium
[5] = system: Pseudomonas aeruginosa ATCC 27853
[6] = system: Staphylococcus aureus ATCC 9144
Micrococcus luteus = system: Micrococcus luteus
[7] = system: Corynebacterium glutamicum ATCC 13032
Aureobasidium pullulans = system: Aureobasidium pullulans
[8] = system: Escherichia coli ATCC 11775
[9] = system: Micrococcus luteus ATCC 49732
[10] = system: Staphylococcus aureus ATCC 12600
[11] = system: Candida albicans ATCC 14053
Escherichia coli MG1655 = system: Escherichia coli MG1655
[12] = system: Staphylococcus aureus MTCC 9542
Vibrio cholerae = system: Vibrio cholerae
[13] = system: Bacillus subtilis MTCC 14416
[14] = system: Staphylococcus aureus ATCC 43300
[15] = system: Enterococcus faecalis ATCC 29212
[16] = system: Streptococcus sanguinis NY101
Escherichia coli W3110 = system: Escherichia coli W3110
[17] = system: Streptococcus mutans UA159
Staphylococcus aureus = system: Staphylococcus aureus
[18] = system: Streptococcus sobrinus ATCC 33478
[19] = system: Pseudomonas aeruginosa PAK
Enterococcus faecalis = system: Enterococcus faecalis

MIC (Bacillus subtilis 168 HT): ≥ 33.8 µM
MIC [1]: ≥ 33.8 µM
SMILES: CC[C@H](C)[C@H](NC(=O)[C@H](CCC(N)=O)NC(=O)[C@@H](NC(=O)[C@@H](N)CC(C)C)C(C)C)C(=O)NCC(=O)N[C@H](C(=O)N[C@@H](CCCCN)C(=O)N[C@H](C(=O)N[C@H](C(=O)NCC(=O)N[C@H](C(=O)NCC(=O)N[C@@H](CCCN=C(N)N)C(=O)N[C@@H](CC(N)=O)C(=O)N[C@@H](Cc1ccc(O)cc1)C(=O)N[C@@H](C)C(=O)N[C@@H](C)C(=O)N[C@@H](Cc1cnc[nH]1)C(=O)O)C(C)C)C(C)C)[C@@H](C)CC)[C@@H](C)O [LVQIGTKIVGVGRNYAAH]

MIC [2]: 104 µM (≈ 125 µg/mL)
MIC [3]: > 207 µM
MIC [4]: ≥ 207 µM
MIC (Bacillus megaterium): 6.46 µM (≈ 7.79 µg/mL)
MIC [5]: > 207 µM
MIC [6]: ≥ 207 µM
MIC (Micrococcus luteus): ≥ 51.8 µM
MIC [7]: 25.9 µM (≈ 31.3 µg/mL)
MIC (Aureobasidium pullulans): ≥ 207 µM
SMILES: CC(C)C[C@H](NC(=O)[C@H](CC(C)C)NC(=O)[C@H](CC(C)C)NC(=O)[C@@H]1CCCN1C(=O)[C@H](CCCN=C(N)N)NC(=O)[C@H](CCCN=C(N)N)NC(=O)CN)C(=O)N[C@@H](CCCN=C(N)N)C(=O)N[C@@H](C)C(=O)N[C@@H](CCCN=C(N)N)C(N)=O [GRRPLLLRAR]

MIC [8]: ≥ 97 µM
MIC [9]: ≥ 97 µM
MIC [10]: ≥ 97 µM
MIC [11]: ≥ 97 µM
SMILES: CC(C)[C@H](NC(=O)[C@H](C)NC(=O)[C@@H](NC(=O)CNC(=O)[C@@H]1CCCN1)[C@@H](C)O)C(=O)N[C@@H](C)C(=O)N[C@@H](CCCCN)C(=O)O [PGTAVAK]

MIC (Escherichia coli MG1655): 23.3 µM (≈ 49.9 µg/mL)
MIC [12]: 11.7 µM (≈ 25 µg/mL)
MIC [5]: > 46.6 µM
MIC [13]: ≥ 46.6 µM
MIC [14]: > 46.6 µM
SMILES: CC[C@H](C)[C@H](N)C(=O)N[C@@H](C)C(=O)NCC(=O)N[C@@H](CC(C)C)C(=O)N[C@@H](C)C(=O)N[C@@H](C)C(=O)N[C@@H](CC(N)=O)C(=O)N[C@@H](Cc1ccccc1)C(=O)N[C@@H](CC(C)C)C(=O)N1CCC[C@H]1C(=O)N[C@@H](CCC(N)=O)C(=O)N[C@H](C(=O)N[C@@H](CC(C)C)C(=O)N[C@H]1CSSC[C@@H](C(N)=O)NC(=O)[C@H](CCCCN)NC(=O)[C@H](CCCN=C(N)N)NC(=O)[C@H](C)NC(=O)[C@H]([C@@H](C)CC)NC(=O)[C@H](CCCCN)NC1=O)[C@@H](C)CC [IAGLAANFLPQILCKIARKC]
MIC (Vibrio cholerae): 11.7 µM (≈ 25 µg/mL)

MIC (Escherichia coli MG1655): 11 µM (≈ 25 µg/mL)
MIC [12]: 5.5 µM (≈ 12.5 µg/mL)
MIC [5]: > 44 µM
MIC [13]: ≥ 44 µM
MIC [14]: > 44 µM
MIC [15]: 22 µM (≈ 49.9 µg/mL)
SMILES: CC[C@H](C)[C@@H]1NC(=O)[C@H](CCCCN)NC(=O)[C@@H](NC(=O)[C@H](CC(C)C)NC(=O)[C@@H](NC(=O)[C@H](CCC(N)=O)NC(=O)[C@@H]2CCCN2C(=O)[C@H](CC(C)C)NC(=O)[C@H](Cc2ccccc2)NC(=O)[C@H](CC(N)=O)NC(=O)[C@H](C)NC(=O)[C@H](C)NC(=O)[C@H](CC(C)C)NC(=O)CNC(=O)[C@H](C)NC(=O)[C@@H](NC(=O)[C@@H](N)CCCCN)[C@@H](C)CC)[C@@H](C)CC)CSSC[C@@H](C(N)=O)NC(=O)[C@H](CCCCN)NC(=O)[C@H](CCCN=C(N)N)NC(=O)[C@H](C)NC1=O [KIAGLAANFLPQILCKIARKC]
MIC (Vibrio cholerae): 11 µM (≈ 25 µg/mL)

MIC [2]: 25 µM (≈ 36.4 µg/mL)
MIC [3]: 6.3 µM (≈ 9.18 µg/mL)
MIC [5]: 25 µM (≈ 36.4 µg/mL)
MIC [6]: ≥ 100 µM
MIC [7]: 0.8 µM (≈ 1.17 µg/mL)
MIC (Aureobasidium pullulans): 25 µM (≈ 36.4 µg/mL)
SMILES: CC(C)[C@H](NC(=O)[C@H](CCCCN)NC(=O)[C@H](C)NC(=O)[C@@H](NC(=O)[C@@H](NC(=O)[C@H](C)NC(=O)[C@H](CCCN=C(N)N)NC(=O)[C@H](Cc1c[nH]c2ccccc12)NC(=O)[C@H](Cc1c[nH]c2ccccc12)NC(=O)CN)[C@@H](C)O)C(C)C)C(=O)N[C@@H](CCCN=C(N)N)C(=O)N[C@@H](CCCCN)C(N)=O [GWWRATVAKVRK]

MIC (Escherichia coli MG1655): 21.9 µM (≈ 49.9 µg/mL)
MIC [12]: ≥ 43.8 µM
MIC [5]: > 43.8 µM
MIC [13]: 21.9 µM (≈ 49.9 µg/mL)
MIC [14]: 43.8 µM (≈ 99.9 µg/mL)
SMILES: CC[C@H](C)[C@@H]1NC(=O)[C@H](CCCCN)NC(=O)[C@@H](NC(=O)[C@H](CC(C)C)NC(=O)[C@@H](NC(=O)[C@H](CCC(N)=O)NC(=O)[C@@H]2CCCN2C(=O)[C@H](CC(C)C)NC(=O)[C@H](Cc2ccccc2)NC(=O)[C@H](CC(N)=O)NC(=O)[C@H](C)NC(=O)[C@H](C)NC(=O)[C@H](CC(C)C)NC(=O)CNC(=O)[C@H](C)NC(=O)[C@@H](NC(=O)[C@@H](N)Cc2cnc[nH]2)[C@@H](C)CC)[C@@H](C)CC)CSSC[C@@H](C(N)=O)NC(=O)[C@H](CCCCN)NC(=O)[C@H](CCCN=C(N)N)NC(=O)[C@H](C)NC1=O [HIAGLAANFLPQILCKIARKC]
MIC (Vibrio cholerae): 11 µM (≈ 25 µg/mL)

MIC [2]: 41.2 µM (≈ 62.5 µg/mL)
MIC [3]: 10.3 µM (≈ 15.6 µg/mL)
MIC [4]: 5.15 µM (≈ 7.8 µg/mL)
MIC (Bacillus megaterium): 2.57 µM (≈ 3.9 µg/mL)
MIC [5]: 20.7 µM (≈ 31.3 µg/mL)
MIC [6]: ≥ 41.2 µM
MIC (Micrococcus luteus): 10.3 µM (≈ 15.6 µg/mL)
MIC [7]: 5.15 µM (≈ 7.8 µg/mL)
MIC (Aureobasidium pullulans): ≥ 41.2 µM
SMILES: C[C@H](NC(=O)[C@H](CCCN=C(N)N)NC(=O)[C@H](Cc1c[nH]c2ccccc12)NC(=O)[C@H](Cc1c[nH]c2ccccc12)NC(=O)[C@H](Cc1c[nH]c2ccccc12)NC(=O)[C@H](Cc1c[nH]c2ccccc12)NC(=O)[C@H](CCCN=C(N)N)NC(=O)[C@H](CCCN=C(N)N)NC(=O)CN)C(=O)N[C@@H](CCCN=C(N)N)C(N)=O [GRRWWWWRAR]

MIC (Escherichia coli MG1655): 10.3 µM (≈ 16 µg/mL)
MIC (Bacillus subtilis 168 HT): 10.3 µM (≈ 16 µg/mL)
SMILES: CC[C@H](C)[C@H](NC(=O)[C@H](CCCN=C(N)N)NC(=O)[C@H](CCSC)NC(=O)[C@@H](NC(=O)[C@H](CCCN=C(N)N)NC(=O)[C@@H](N)Cc1ccccc1)[C@@H](C)CC)C(=O)N[C@@H](CC(C)C)C(=O)N[C@@H](CCCN=C(N)N)C(=O)N[C@H](C(=O)N[C@@H](CC(C)C)C(=O)N[C@@H](CCCCN)C(=O)N[C@@H](CC(C)C)C(=O)O)C(C)C [FRIMRILRVLKL]

MIC [8]: ≥ 101 µM
MIC [9]: ≥ 910 µM
MIC [10]: ≥ 303 µM
MIC [11]: ≥ 303 µM
SMILES: CC(C)[C@H](NC(=O)[C@H](C)NC(=O)[C@@H](NC(=O)[C@H](C)NC(=O)[C@@H]1CCCN1)[C@@H](C)O)C(=O)N[C@@H](Cc1ccccc1)C(=O)N[C@@H](CCCCN)C(=O)O [PATAVFK]

MIC [16]: 23.7 µM (≈ 62.5 µg/mL)
MIC (Escherichia coli W3110): ≥ 47.4 µM
MIC [17]: 23.7 µM (≈ 62.5 µg/mL)
MIC (Staphylococcus aureus): > 190 µM
MIC [18]: 23.7 µM (≈ 62.5 µg/mL)
MIC [19]: ≥ 190 µM
MIC (Enterococcus faecalis): ≥ 94.8 µM
SMILES: CC[C@H](C)[C@H](NC(=O)[C@H](Cc1ccccc1)NC(=O)[C@H](Cc1cnc[nH]1)NC(=O)[C@H](CCCCN)NC(=O)[C@@H](NC(=O)[C@H](Cc1ccccc1)NC(=O)[C@@H]1CCCN1C(=O)[C@H](CO)NC(=O)CNC(=O)[C@H](CO)NC(=O)[C@@H]1CCCN1C(=O)[C@H](Cc1ccccc1)NC(=O)[C@H](Cc1cnc[nH]1)NC(=O)[C@H](CC(C)C)NC(=O)[C@H](Cc1cnc[nH]1)NC(=O)[C@H](Cc1ccccc1)NC(=O)[C@H](Cc1cnc[nH]1)NC(=O)[C@@H](N)Cc1ccccc1)[C@@H](C)CC)C(=O)N[C@@H](Cc1cnc[nH]1)C(=O)N[C@@H](CCCN=C(N)N)C(=O)N[C@@H](Cc1ccccc1)C(N)=O [FHFHLHFPSGSPFIKHFIHRF]

MIC [8]: 0.5 µM (≈ 1.23 µg/mL)
MIC [9]: 2 µM (≈ 4.91 µg/mL)
MIC [10]: 0.5 µM (≈ 1.23 µg/mL)
SMILES: CC[C@H](C)[C@H](NC(=O)[C@H](C)NC(=O)[C@H](C)NC(=O)[C@H](CCC(=O)O)NC(=O)[C@H](CCCCN)NC(=O)CNC(=O)[C@@H](NC(=O)[C@H](CC(N)=O)NC(=O)[C@H](CCCCN)NC(=O)[C@@H](NC(=O)[C@@H](NC(=O)[C@H](CO)NC(=O)[C@H](Cc1c[nH]c2ccccc12)NC(=O)[C@H](CC(C)C)NC(=O)CN)[C@@H](C)O)[C@@H](C)CC)C(C)C)C(=O)N[C@@H](C)C(=O)N[C@@H](C)C(=O)NCC(=O)N[C@@H](CCCCN)C(=O)N[C@@H](C)C(=O)N[C@H](C(=O)N[C@@H](CC(C)C)C(=O)NCC(=O)N[C@@H](CO)C(=O)N[C@@H](CC(C)C)C(N)=O)C(C)C [GLWSTIKNVGKEAAIAAGKAVLGSL]
